In brackets after ≈: the same amount, converted by molar mass. Counter-ions that a name gives are not always drawn. Like-named read-outs stand apart in the source and are kept apart here.
Assays:
Test in all cases: Agar dilution test (Isosensitest agar), MIC
Assay type in all cases: cell-based
E.coli 455/7 = conditions: Escherichia coli; strain E.coli 455/7; Agardilutionstest/Isosensitestagar; read-out: MHK
Staph. aur. 1756 = conditions: strain Staph. aur. 1756; Agardilutionstest/Isosensitestagar; read-out: MHK
Source text: (§1) In der nachstehenden Tabelle sind einige MHK-Werte im Vergleich zu 1-Cyclopropyl-6-fluor-1,4-dihydro-4-oxo-7-(1-piperazinyl)-3-chinolincarbonsäure (Ciprofloxacin) angegeben: […]

Staph. aur. FK 422 = conditions: strain Staph. aur. FK 422; Agardilutionstest/Isosensitestagar; read-out: MHK
Source text: as §1

Streptoc. faecal. 27101 = conditions: strain Streptoc. faecal. 27101; Agardilutionstest/Isosensitestagar; read-out: MHK
Source text: as §1

Streptoc. faecal. 9790 = conditions: strain Streptoc. faecal. 9790; Agardilutionstest/Isosensitestagar; read-out: MHK
Source text: as §1

Pseudomonas aerug. W. = conditions: strain Pseudomonas aerug. W.; Agardilutionstest/Isosensitestagar; read-out: MHK
Providenicia 12052 = conditions: read-out: MHK
Source text: as §1

Staph. aur. 133 = conditions: strain Staph. aur. 133; Agardilutionstest/Isosensitestagar; read-out: MHK
Source text: as §1

[1] = strain Providenicia 12052, Agardilutionstest/Isosensitestagar

MIC (E.coli 455/7) [µg/mL]	MIC (Staph. aur. 1756) [µg/mL]	MIC (Staph. aur. FK 422) [µg/mL]	MIC (Streptoc. faecal. 27101) [µg/mL]	MIC (Streptoc. faecal. 9790) [µg/mL]	MIC (Providenicia 12052; [1]) [µg/mL]	MIC (Staph. aur. 133) [µg/mL]	Compound	MIC (Pseudomonas aerug. W.) [µg/mL]	MIC (Providenicia 12052) [µg/mL]
2	0.25	0.25	0.25	0.25	–	–	O=C(O)c1cn(C2CC2)c2cc(N3CCN4CCC3C4)c(F)cc2c1=O (stereo not drawn) [Beispiel 1, 1-Cyclopropyl-7-(1,4-diazabicyclo[3.2.1]oct-4-yl)-6-fluor-1,4-dihydro-4-oxo-3-chinolincarbonsäureHydrochlorid]	0.5	–
0.5	0.06	0.06	0.06	0.06	8	0.06	O=C(O)c1cn(C2CC2)c2c(Cl)c(N3CCN4CCC3C4)c(F)cc2c1=O (stereo not drawn) [Beispiel 3, 8-Chlor-1-cyclopropyl-7-(1,4-diazabicyclo[3.2.1]ocl-4-yl)-6-fluor-1,4-dihydro-4-oxo-3-chinolincarbonäure-Hydrochlorid-Hydrat]	–	–
0.5 (≈ 1.33 µM)	0.06 (≈ 0.16 µM)	–	–	0.25 (≈ 0.666 µM)	8 (≈ 21.3 µM)	0.06 (≈ 0.16 µM)	O=C(O)c1cn(C2CC2)c2c(F)c(N3CCN4CCC3C4)c(F)cc2c1=O (stereo not drawn) [Beispiel 4, 1-Cyclopropyl-7-(1,4-diazabicyclo[3.2.1]oct-4-yl)-6,8-difluor-1,4-dihydro-4-oxo-3-chinolincarbonsäure]	0.5 (≈ 1.33 µM)	–

Compound	MIC (E.coli 455/7) [µg/mL]	MIC (Staph. aur. 1756) [µg/mL]	MIC (Staph. aur. FK 422) [µg/mL]	MIC (Streptoc. faecal. 27101) [µg/mL]	MIC (Streptoc. faecal. 9790) [µg/mL]	MIC (Providenicia 12052; [1]) [µg/mL]	MIC (Staph. aur. 133) [µg/mL]	MIC (Pseudomonas aerug. W.) [µg/mL]	MIC (Providenicia 12052) [µg/mL]
CN1C2CCC1CN(c1cc3c(cc1F)c(=O)c(C(=O)O)cn3C1CC1)C2 [Beispiel 12, 1-Cyclopropyl-6-fluor-1,4-dihydro-7-(8-methyl-3,8-diazabi-cyclo[3.2.1]oct-3-yl)-4-oxo-3-chinolincarbonsäure]	4 (≈ 10.8 µM)	–	–	–	–	–	–	0.5 (≈ 1.35 µM)	16 (≈ 43.1 µM)
O=C(O)c1cn(C2CC2)c2cc(N3CCNCC3)c(F)cc2c1=O [Ciprofloxacin, 1-Cyclopropyl-6-fluor-1,4-dihydro-4-oxo-7-(1-piperazinyl)-3-chinolincarbonsäure, reference compound]	2 (≈ 6.04 µM)	0.5 (≈ 1.51 µM)	0.5 (≈ 1.51 µM)	0.5 (≈ 1.51 µM)	0.25 (≈ 0.754 µM)	32 (≈ 96.6 µM)	0.5 (≈ 1.51 µM)	0.5 (≈ 1.51 µM)	–

From patent EP0230274A2, “Derivatives of 7-(azabicycloalkyl)-quinoloncarboxylic acid and -naphthyridoncarboxylic acid” (BAYER AG, priority 1986, dated 1987)
